One assay has as its target T1, human α4β2 subtype of nicotinic acetylcholine receptors (Homo sapiens, UniProt P17787+P43681).
T1 construct: expressed in transfected cells; host or cells: Xenopus laevis oocytes injected with 50 ng each of α4 and β2 cRNA (pSP64 polyA vector)
The assay can be described thus: Agonist activities at human α4β2 subtype of nicotinic acetylcholine receptors expressed in Xenopus oocytes (membrane potential holding method). It counts as cell-based.
Conditions: not given
The protocol:
Agonist effect in human α4β2 subtype of nicotinic acetylcholine receptors are examined by using human nicotinic acetylcholine receptors prepared in oocytes of Xenopus laevis, which is injected with cRNA from the corresponding cloning cDNA of human α4 and β2 subunits of nicotinic acetylcholine receptors, and to measure the expression of electric response by adding the test compounds to perfusion solution by means of membrane potential holding method.
Agonist Activities at Human α4β2 Subtype of Nicotinic Acetylcholine Receptors
(1) Preparation of cRNA of Human α4β2 Subtype of Nicotinic Acetylcholine Receptors
Obtained hnACh-R α4 cDNA and hnACh-R β2 cDNA were inserted to the cRNA expression vector (pSP64 polyA) having SP6 RNA promoter to construct hnACh-R α4/pSP64 polyA and hnACh-R β2/pSP64 polyA, respectively. After cutting from expression vector by restriction enzyme (EcoRI), transcription was performed by affecting SP6 RNA polymerase in the presence of cap analogues to obtain hnACh-R α4 cRNA and hnACh-R β2 cRNA, respectively.
(2) Expression of Human α4β2 Subtype Nicotinic Acetylcholine Receptors in Xenopus oocytes
Oocytes were purchased from Kitanihonseibutsukyohzai Co., Ltd., which were already enucleated from Xenopus laevis, and used in this experiment.
The oocytes were treated with collagenase (Sigma type I; 1 mg/ml) in calcium-free modified Birth's solution (88 mM of NaCl, 1 mM of KCl, 2.4 mM of NaHCO3, 0.82 mM of MgSO4, 15 mM of HEPES, pH 7.6) under gently stirring at room temperature for 90 minutes, and washed out the enzyme from the tissue. Then, oocytes were separated from ovarian follicle by tweezers, and isolated oocytes were placed in antibiotics containing modified Birth's solution (88 mM of NaCl, 1 mM of KCl, 2.4 mM of NaHCO3, 0.82 mM of MgSO4, 15 mM of HEPES, pH 7.6, and 0.1 v/v% of mixture solution containing of penicillin and streptomycin for incubation; Sigma Co.). […] In oocytes, heterogeneous quintuple [(α4)2(β2)3] was composed by translation of injected cRNAs, and ion channel receptors were constructed on cell membrane.
(3) Agonist Activities at Human α4β2 Subtype of Nicotinic Acetylcholine Receptors
Recordings of response at human α4β2 subtype of nicotinic acetylcholine receptors by means of membrane potential holding method were performed as follow. […] Test compounds were added to the perfusion solution, and recorded the peak strength of induced inward current. In order to normalize the response of test compounds, the response with acetylcholine (Ach) were recorded before and after application of the test compounds. Generally in the oocytes just after isolated, the response of intrinsic muscarinic acetylcholine receptors, which is inward electric current caused by activation of calcium dependence chloride ion channels with increase of the intracellular calcium concentration by stimulation of receptors, is observed. […] Therefore, the responses observed in oocytes with injection of hnACh-R α4 cRNA and hnACh-R β2 cRNA, i.e., the inward current induced by the intracellular influx of sodium ion according to the stimulation of receptors, would be the freshly observed responses of human α4β2 subtype nicotinic acetylcholine receptors.
T1 sequence (P43681 29-627 limits assumed): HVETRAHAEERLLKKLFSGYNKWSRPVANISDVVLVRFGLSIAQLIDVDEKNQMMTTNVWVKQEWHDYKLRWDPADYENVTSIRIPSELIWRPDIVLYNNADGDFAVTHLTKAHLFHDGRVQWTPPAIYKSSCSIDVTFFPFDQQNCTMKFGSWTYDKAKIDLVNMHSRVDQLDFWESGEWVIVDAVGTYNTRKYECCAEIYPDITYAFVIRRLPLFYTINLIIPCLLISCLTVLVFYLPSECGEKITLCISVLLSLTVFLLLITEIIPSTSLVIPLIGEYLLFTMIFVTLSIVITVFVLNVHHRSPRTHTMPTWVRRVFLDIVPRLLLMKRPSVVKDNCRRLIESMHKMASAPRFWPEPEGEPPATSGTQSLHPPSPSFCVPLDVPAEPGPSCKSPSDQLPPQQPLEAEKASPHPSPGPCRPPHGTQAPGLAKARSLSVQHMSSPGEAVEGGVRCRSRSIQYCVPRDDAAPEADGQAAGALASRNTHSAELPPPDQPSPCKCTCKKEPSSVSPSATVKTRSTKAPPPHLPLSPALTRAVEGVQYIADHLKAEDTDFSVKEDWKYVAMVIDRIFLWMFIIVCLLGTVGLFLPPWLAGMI
T1 sequence (P17787 26-502): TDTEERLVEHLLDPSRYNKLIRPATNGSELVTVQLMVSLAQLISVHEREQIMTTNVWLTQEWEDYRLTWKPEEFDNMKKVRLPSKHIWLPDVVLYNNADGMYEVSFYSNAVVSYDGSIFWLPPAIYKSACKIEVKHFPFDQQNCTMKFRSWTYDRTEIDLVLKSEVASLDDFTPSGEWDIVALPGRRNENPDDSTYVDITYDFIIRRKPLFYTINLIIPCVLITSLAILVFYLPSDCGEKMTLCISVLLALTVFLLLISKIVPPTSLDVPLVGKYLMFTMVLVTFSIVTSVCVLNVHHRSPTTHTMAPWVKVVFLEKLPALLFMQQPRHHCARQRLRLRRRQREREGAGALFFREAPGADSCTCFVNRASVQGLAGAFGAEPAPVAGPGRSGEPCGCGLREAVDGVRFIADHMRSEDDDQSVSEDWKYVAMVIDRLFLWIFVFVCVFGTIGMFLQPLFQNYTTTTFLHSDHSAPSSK
`N=C1CCCN1Cc1ccc(Cl)nc1` [Compound 14, 1-(6-Chloro-3-pyridyl)methyl-2-iminopyrrolidine] registered an EC50 of 27.1 µM.

Staying with this assay, now noted: 100 μM test compound, in comparison with the response at 10 μM acetylcholine (100%); read-out: Agonist activity: control % by response at 100 μM of the test compound.
For `N=C1SCCN1Cc1ccc(Cl)nc1` [Compound 5, 3-(6-chloro-3-pyridyl)methyl-2-iminothiazolidine], the Emax at 100 µM was determined as 4.9%.
Same read-out and setting: with `N=c1ccccn1Cc1ccc(Cl)nc1` [Compound 7, 1-(6-chloro-3-pyridyl)methyl-2-imino-1,2-dihydropyridine] the figure was 16%; with `Nc1nccn1Cc1cccnc1` [Compound 55, 2-amino-i-(3-pyridyl)methylimidazole], 17%.

The assay is the same for the next values; noted with them: Xenopus oocytes expressing human α4β2, held at −50 mV, peak inward current; read-out: Agonist activity (ED50).
Regarding `N=c1sccn1Cc1ccc(Cl)nc1` [Compound 8, 3-(6-chloro-3-pyridyl)methyl-2-imino-2,3-dihydrothiazole], the EC50 came out at 4.2 µM.
On the same count and under the same terms, under `Nc1nccn1Cc1ccc(Cl)nc1` [Compound 9, 2-amino-1-(6-chloro-3-pyridyl)methylimidazole] stands 92 µM; under `N=C1NCCN1Cc1ccc(Cl)nc1` [Compound 13, 1-(6-Chloro-3-pyridyl)methyl-2-iminoimidazolidine], 14.7 µM.

The same assay, now with this note: read-out: Agonist activity: control % by response at 100 μM of the test compound.
As for `N=c1sccn1Cc1ccc(Br)nc1` [Compound 11, 3-(6-bromo-3-pyridyl)methyl-2-imino-2,3-dihydrothiazole], the Emax at 100 µM turned out to be 47%.
On the same count and under the same terms, under `N=c1sccn1Cc1ccc(F)nc1` [Compound 12, 3-(6-fluoro-3-pyridyl)methyl-2-imino-2,3-dihydrothiazole] stands 21%; under `N=C1SCCN1Cc1ccc(Cl)cc1` [Compound 31, 3-(4-chlorobenzyl)-2-iminothiazolidine], 4%.
Turning to `N=C1SCCN1Cc1ccnnc1` [Compound 33, 2-imino-3-(4-pyridazinyl)methylthiazolidine], the Emax at 100 µM worked out at 6%.
Regarding `N=C1SCCN1Cc1cnc(Cl)s1` [Compound 34, 3-(2-chloro-5-thiazolyl)methyl-2-iminothiazolidine], the Emax at 100 µM amounted to 13%.
The same measure, in the same setting: with `N=c1ccc(-c2ccccc2)nn1Cc1ccc(Cl)nc1` [Compound 44, 2-(6-chloro-3-pyridyl)methyl-3-imino-6-phenyl-2,3-dihydropyridazine] the figure was 10%.

For the origin of these results see patent publication US20020028809A1 (SUNTORY LIMITED, priority 1999, published 2002).
